Data taken from patent EP4817613A1, “COMPOSITION FOR ERADICATING HELICOBACTER PYLORI COMPRISING ZASTAPRAZAN OR PHARMACEUTICALLY ACCEPTABLE SALT THEREOF” (Jeil Pharmaceutical Co., Ltd., priority 2023, dated 2025).

Assays:
[1] = tested on: patients with erosive gastroesophageal reflux disease; test: Phase 2 clinical trial, randomized, double-blind, active-controlled: healing of mucosal breaks and symptoms; assay type: in vivo, human; conditions: for overall healing rate, number of subjects whose mucosal breaks were completely healed / overall healing rate, proportion of subjects whose mucosal breaks were completely healed: H. pylori-positive and -negative groups together
Description: H. pylori testing was performed by 13C-urea breath test (13C-UBT), gastroscopy (Campylobacter-like organism test, CLO), or tissue biopsy to confirm H. pylori positivity/negativity. The testing was performed at the screening visit (Visit 1) or the randomization visit (Visit 2), and results from the same institution within 29 days prior to the randomization visit (Visit 2) could be substituted. This clinical trial was a randomized, double-blind, active-controlled, multicenter, phase 2 clinical trial targeting patients with erosive gastroesophageal reflux disease. After the subjects gave written consent to participate in the clinical trial, a screening test was conducted. When the subjects were taking drugs that could affect the gastric mucosa at the time of screening, an upper gastrointestinal endoscopy was performed after a 2-week drug-free period (a 4-week drug-free period for potassium-competitive acid blockers (P-CABs) or proton pump inhibitors (PPIs)). […] At this time, the subjects were stratified by grade (A, B, C, D) according to the LA classification system classified by upper gastrointestinal endoscopy. Randomly assigned subjects took the clinical trial drug once a day according to the assigned administration group for four weeks. After four weeks of administration of the clinical trial drug, the subjects visited the clinical trial institution to undergo an upper gastrointestinal endoscopy to assess whether they were healed. Healed subjects underwent a Safety Follow-Up (F/U) two weeks later, and unhealed subjects were administered the clinical trial drug for additional four weeks (a total of 8 weeks of administration) and visited the clinical trial institution to undergo an upper gastrointestinal endoscopy. […] Days of achieving complete remission (CR, disappearance of heartburn and acid reflux for seven days) after the administration of the clinical trial drug • D. Proportion of symptom-free days (heartburn, acid reflux, heartburn/acid reflux) for 4 and 8 weeks after the administration of the clinical trial drug (daytime, nighttime, daytime/nighttime) • ③ Changes in frequency and severity of major symptoms at week 4 and week 8 of the clinical trial drug administration compared to the gastroesophageal reflux disease questionnaire (RDQ) baseline • ④ Changes in total score at week 4 and week 8 of the clinical trial drug administration compared to the GERD Health-Related Quality of Life (GERD-HRQL) baseline The proportion of subjects whose erosions recovered to normal mucosa from the first administration of the clinical trial drug up to week 8 and the two-sided 95% confidence intervals were presented by administration group. […] Days of achieving CR (disappearance of heartburn and acid reflux for seven days) after the administration of the clinical trial drug: When the symptom score is 0 for seven consecutive days after the first administration of the clinical trial drug, it was defined as CR (disappearance of heartburn and acid reflux for seven days), and the event was based on the first CR. When there was no CR, the case was considered as censoring.

[2] = tested on: patients with erosive gastroesophageal reflux disease; test: Phase 3 clinical trial: healing rate of mucosal breaks in H. pylori-positive subjects; assay type: in vivo, human
Description: H. pylori testing was performed by 13C-UBT, gastroscopy (Campylobacter-like organism test, CLO), or tissue biopsy to confirm H. pylori positivity/negativity. The testing was performed at the screening visit (Visit 1) or the randomization visit (Visit 2), and results from the same institution within 29 days prior to the randomization visit (Visit 2) could be substituted. Those who voluntarily agreed to participate in this clinical trial underwent a screening test through a screening visit, and only eligible subjects were allowed to participate in the clinical trial based on the inclusion/exclusion criteria. Eligible subjects were randomly assigned to the test group or control group and received the clinical trial drug according to the assigned group at the baseline visit (V2). […] [Table 10] The cumulative healing rate of mucosal breaks according to the presence or absence of H. pylori infection refers to the proportion of subjects whose mucosal breaks were healed by 4 weeks after the administration of the clinical trial drug on endoscopic examination. The frequency and percentage of healing rates of mucosal breaks at week 4 after the administration of the clinical trial drug were presented by administration group according to the presence or absence of H. pylori infection. The differences between the administration groups (test group-control group) were analyzed using the Cochran-Mantel-Haenszel method corrected with the baseline LA classification method as a stratification factor, and the 95% confidence intervals for the differences were presented.

[3] = tested on: Helicobacter pylori SS1 (mouse colonizing strain); test: Antibiotic susceptibility testing by microdilution (MIC and MBC), CLSI guideline; assay type: cell-based; conditions: lowest concentration with no growth after spotting on antibiotic-free agar, Table 4 prints no unit (method concentrations in µg/mL)
Description: Helicobacter pylori SS1 (mouse colonizing strain): A strain known as Sydney strain. The strain is CagA-positive and VacA-positive and has been confirmed to infect and colonize in C57BL/6 mice. The strain is used in animal testing. The medium was prepared using Müller-Hinton broth (MH, Difco Inc., Sparks, MD, USA) [w/7% differentiation medium (Sigma CO., LTD., St. Louis, USA), 0.4% isovitalex (BBL Inc., Sparks, MD, USA)]. An antibiotic susceptibility testing was performed using the microdilution method according to the CLSI guideline. Two-fold serial dilution was performed in 12 steps in a 48-well plate with the highest concentration of 128 µg/mL for amocixillin and clarithromycin and 256 µg/mL for omeprazole. The bacteria were inoculated into wells containing only medium without antibiotics to prepare the positive control group, and the wells containing only medium without antibiotics or inoculated bacteria were used as the negative control group. The concentration range of the test substances, zastaprazan (JP-1366) and fexuprazan, was determined through preliminary experiments. […] The lowest concentration at which no bacterial growth was observed was determined as the MIC. […] The lowest concentration at which no bacteria growth occurred was determined as the MBC. […] All tests were performed in duplicate, and the results were determined by conducting the experiments in triplicate.

Row | Compound | Healing rate, (%) ([1]; H. pylori-negative group, week 8, 40 mg once a day, N=41) | overall healing rate, number of subjects whose mucosal breaks were completely healed ([1]; week 4, 40 mg once a day, of 49 people) [people] | Number of healed subjects, (%) ([2]; full analysis set (FAS), week 4, 40 mg once a day, 25 subjects) | MBC [3] | Healing rate, (%) ([1]; H. pylori-negative group, week 4, 10 mg once a day, N=41) | Healing rate, (%) ([1]; H. pylori-negative group, week 4, 20 mg once a day, N=42) | Healing rate, (%) ([1]; H. pylori-negative group, week 8, 10 mg once a day, N=41) | Healing rate, (%) ([1]; H. pylori-negative group, week 8, 20 mg once a day, N=42) | overall healing rate, proportion of subjects whose mucosal breaks were completely healed ([1]; week 4, 10 mg once a day, 48 people) [%] | overall healing rate, number of subjects whose mucosal breaks were completely healed ([1]; week 4, 10 mg once a day, of 48 people) [people] | overall healing rate, proportion of subjects whose mucosal breaks were completely healed ([1]; week 4, 20 mg once a day, 47 people) [%] | overall healing rate, number of subjects whose mucosal breaks were completely healed ([1]; week 4, 20 mg once a day, of 47 people) [people] | Healing rate, (%) ([1]; H. pylori-positive group, week 4, 10 mg once a day, N=7) | Healing rate, (%) ([1]; H. pylori-positive group, week 4, 20 mg once a day, N=5, citrate salt) | Healing rate, (%) ([1]; H. pylori-positive group, week 8, 10 mg once a day, N=7) | Healing rate, (%) ([1]; H. pylori-positive group, week 8, 20 mg once a day, N=5, citrate salt) | Number of healed subjects, (%) ([2]; full analysis set (FAS), week 4, 20 mg once a day, 28 subjects) | Number of healed subjects, (%) ([2]; per protocol set (PPS), week 4, 20 mg once a day, 26 subjects)
1 | COc1ccc2nc([S@@+]([O-])Cc3ncc(C)c(OC)c3C)[nH]c2c1 [Esomeprazole, Esomeprazole magnesium trihydrate, reference compound] | 97.56 | 44 | 80.00 |  |  |  |  |  |  |  |  |  |  |  |  |  |  | 
2 | Cc1cccc(C)c1CNc1cc(C(=O)N2CCC2)cn2c(C)c(C)nc12.O=C(O)CC(O)(CC(=O)O)C(=O)O [JP-1366, azetidin-1-yl{8-[(2,6-dimethylbenzyl)amino]-2,3-dimethylimidazo[1,2-a]pyridin-6-yl}methanone citrate salt] |  |  |  | 16~323 | 95.12 | 90.48 | 97.56 | 97.62 | 93.75 | 45 | 91.49 | 43 | 85.71 | 100 | 100.00 | 100 | 96.43 | 100.00
